From publication PMC12478587 come the findings set out here.

Data set [1] has as its system FTC_1_Full (DNA, aptamer) GGAGGCTCTCGGGACGACGCTGAGTCGTTGGCAAGGTATTGAGAGAGTGTCGTCCCGATGCTGCAATCGTAA
Put plainly: ITC. Conditions: Na+ (PBS), Mg2+ 2 mM, 25 °C, 20 µM aptamer in cell; for binding: 200 µM compound in syringe.

The subject of data set [2] is FTC_1_EAB (FTC_1_5'trunc19_3'trunc25), unlabelled (DNA, aptamer) CTGAGTCGTTGGCAAGGTATTGAGAGAG
In words: ITC. Particulars: Na+ (PBS), Mg2+ 2 mM, 25 °C, 20 µM aptamer in cell; for binding: 200 µM compound in syringe.

In data set [3] the test system is FTC_1_EAB, E-AB sensor (DNA, aptamer) CTGAGTCGTTGGCAAGGTATTGAGAGAG
Put plainly: electrochemical aptamer-based sensor (square wave voltammetry). Particulars: for binding: negligible signal 100 nM to 10 µM.

The test system of data set [4] is FTC_5_Full (DNA, aptamer) GGAGGCTCTCGGGACGACGGCAAGTCGTTGGTAAGGTATTAATCTGGTGTCGTCCCGATGCTGCAATCGTAA
In words: ITC. Particulars: Na+ (PBS), Mg2+ 2 mM, 25 °C, 20 µM aptamer in cell, 200 µM FTC in syringe.

For data set [5], the system named is FTC_1_EAB_Scramble (DNA, other) GATATGGGAGAACGCATTGCGTGGTATG
In words: not stated (ITC series, Figure S7).

For data set [6], the system named is FTC_1_Fluor (FTC_1_5'trunc3_3'trunc14) (DNA, aptamer) GGCTCTCGGGACGACGCTGAGTCGTTGGCAAGGTATTGAGAGAGTGTCGTCCCGA
In words: fluorescence, quencher strand displacement. Particulars: Na+ (PBS), Mg2+ about 1 mM; 50% human plasma; Q-Cap_1 (3'-BHQ2) displaced; 100 nM aptamer, 150 nM Q-Cap_1; apparent.

The subject of data set [7] is FTC_2_Full (DNA, aptamer) GGAGGCTCTCGGGACGACCATGAGTCGTTGGTAAGGTATTAGGAAGCGGTCGTCCCGATGCTGCAATCGTAA
Put plainly: ITC. Particulars: Na+ (PBS), Mg2+ 2 mM, 25 °C, 20 µM aptamer in cell, 200 µM FTC in syringe.

Data set [8] deals with bovine serum albumin (BSA) (UniProt P02769 25-607). Put plainly: ITC; heat change at mole ratios <0.1; BSA as ligand; ITC: PBS + 2 mM MgCl2 (SELEX buffer pH 7.2); general ITC protocol 20 uM aptamer in cell, 200 uM target in syringe; temperature not given. Particulars: protein: commercial; stem-loop, stem S1 13 bp. A general note: Isothermal titration calorimetry measures the heat released or taken up as one component is titrated into another.

Usually EC50 stands for the concentration at which the effect is half-maximal. In general, Kd refers to the free concentration of one partner at which half of the binding sites on the other are occupied at equilibrium, for simple one-to-one binding. A lower Kd goes with a tighter complex.

Chain of bovine serum albumin (BSA) (P02769 25-607): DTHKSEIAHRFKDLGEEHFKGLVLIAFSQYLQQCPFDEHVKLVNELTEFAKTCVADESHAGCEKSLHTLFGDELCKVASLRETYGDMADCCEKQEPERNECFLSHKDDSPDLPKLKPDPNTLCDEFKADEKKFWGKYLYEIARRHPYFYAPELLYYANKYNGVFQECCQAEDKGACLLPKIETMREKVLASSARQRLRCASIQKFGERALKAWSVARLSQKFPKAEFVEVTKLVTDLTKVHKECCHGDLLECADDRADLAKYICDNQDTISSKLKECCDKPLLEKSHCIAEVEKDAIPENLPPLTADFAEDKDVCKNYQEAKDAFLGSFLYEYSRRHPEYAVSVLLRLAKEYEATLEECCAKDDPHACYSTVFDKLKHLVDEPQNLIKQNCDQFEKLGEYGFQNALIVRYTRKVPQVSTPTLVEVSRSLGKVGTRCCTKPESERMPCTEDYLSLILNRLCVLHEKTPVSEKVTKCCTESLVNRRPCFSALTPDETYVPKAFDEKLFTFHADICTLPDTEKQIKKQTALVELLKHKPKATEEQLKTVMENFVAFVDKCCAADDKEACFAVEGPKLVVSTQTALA

Turning to `Nc1cc[nH]c(=O)n1`, the binding result in data set [1] and in data set [2] was “no” each time.
On to `Nc1ccn([C@@H]2CS[C@H](CO)O2)c(=O)n1`, for which the binding result in data set [3] (binding above 10 µM, gain 50% lower than FTC) is “weak”.
Regarding `Nc1nc(=O)n([C@@H]2CS[C@H](COP(=O)(O)OP(=O)(O)OP(=O)(O)O)O2)cc1F`, the binding entry in data set [1] is reported as “no”; in data set [3] (minimal binding at saturation) it was “weak”.
Take `Nc1nc(=O)n([C@@H]2CS[C@H](CO)O2)cc1F`: in data set [1] (200 µM FTC in syringe), the dissociation constant worked out at 150 ± 40 nM. Besides, the binding entry in data set [4] is “yes”; in data set [5] it was “no”; in data set [7] it was “yes”. Moreover, the EC50 in data set [3] (Na+ (PBS), phosphate-buffered saline, gold electrode, Hill coefficient 1, apparent) was determined as 10.4 ± 0.6 µM; in data set [6], 3.536 ± 0.069 µM. Besides, the Kd in data set [2] (200 µM FTC in syringe) is 10.9 ± 0.3 µM.
Turning to `Nc1nc(=O)n([C@@H]2O[C@H](CO)[C@@H](O)[C@H]2O)cc1F`, the binding entry in data set [1] and in data set [2] was “no” in each case.
For the molecule `Nc1ccn([C@@H]2O[C@H](CO)[C@@H](O)[C@H]2O)c(=O)n1`, the binding result in data set [1] and in data set [2] was “no” in each case.

B1: FTC_1 (taken as FTC_1_Full) (structured_DNA)
DNA: GGAGGCTCTCGGGACGACGCTGAGTCGTTGGCAAGGTATTGAGAGAGTGTCGTCCCGATGCTGCAATCGTAA
B1: the binding result in data set [8] is “binds”.
